Values quoted from earlier work as cited in patent US7884090B2, “Compositions and methods for the treatment of arthritis” (priority 1999, dated 2011).

Legend:
[1] = test system: Staph haemolyticus, Staph hominis, Acinetobacter Iwoffi and further listed species up to Yersinia enterocolitica; details: in vitro
[2] = test system: pseudomonas aeruginosa, methicillin-resistant strains of Staph. aureus and Proteus

SMILES	Strains against which effective [1] [%]	Strains against which active [2] [%]
O=C(O)c1cn(C2CC2)c2cc(N3CCNCC3)c(F)cc2c1=O [cipro, ciprofloxacin]	90	
CCN[C@@H]1C[C@H](N)[C@@H](O[C@H]2OC(CN)=CC[C@H]2N)[C@H](O)[C@H]1O[C@H]1OC[C@](C)(O)[C@H](NC)[C@H]1O [netilmicin]		85
